Source: patent publication US11191754B2, “Inhibitors of nucleotidyl transferases and uses in herpes and hepatitis viral infections therefor” (Saint Louis University, priority 2015, dated 2021)
Where “and” joins values, the source holds several entries; their conditions need not be identical. Equal entries are not always repeated. Where two headings read alike, the source gives them in different places.

Key:
HSV-1 = test: Anti-HSV-1 replication assay (virus yield by plaque assay on Vero cells); format: cell-based, herpes simplex virus 1 (HSV-1); details: for HSV-1 inhibition category: semi-quantitative replication inhibition assay
Protocol: (§1) Vero cells were maintained in Dulbecco's modified Eagle's medium (DMEM) containing 3% newborn calf serum, 3% bovine growth serum, 2 mM L-glutamine and 100 IU/mL penicillin and 0.1 mg/mL streptomycin (P/S). HSV-1 #6 and HSV-2 #1 are de-identified clinical isolates from the Saint Louis University Hospital. Stocks were prepared after a single passage in cell culture and were titered by standard plaque assay (Knipe and Spang, 1982). Wild-type HSV-2 used in FIG. 3 was laboratory strain 333. […] Virus stocks were grown and titered on Vero cells (Morrison and Knipe, 1996).
(§2) Compounds to be screened were diluted in PBS supplemented to contain 2% newborn calf serum and 1% glutamine, and added in 100 μL volume to confluent cell monolayers in 24-well cluster plates. Immediately thereafter HSV-1 and HSV-2, diluted in the supplemented PBS medium, were added to the wells in 50 μl volume such that the final concentration of compound was 50 μM, 5 μM and 1 μM and the multiplicity of infection was 0.1. The plates were incubated at 37° C. for 1 hour and then virus-containing inoculum was removed and the wells were washed once in PBS. Compound, diluted to 50 μM, 5 μM and 1 μM in DMEM supplemented to contain 2% newborn calf serum and 1% each penicillin/streptomycin, was added at 0.5 mL/well. Plates were incubated at 37° C. an additional 23 hours, and then the plates were visually inspected through a phase contrast microscope for cytopathic effect, and for toxic effect. The entire contents of each well were collected by scraping. Samples were frozen at −80° C., and then subsequently thawed, sonicated, and infectious virus titer was determined by standard plaque assay on Vero cell monolayers. Because the compounds were dissolved at 10 mM in 100% DMSO, equivalent dilutions of DMSO were added to additional wells as a control for effects of the diluent. Each experiment was repeated once. EC50 values were determined as above except that serial dilutions of the compound to be tested were prepared starting at 50 μM. The inhibitory values were calculated by non-linear curve-fitting in GraphPad Prism.

HSV-2 = test: Anti-HSV-2 replication assay (virus yield by plaque assay on Vero cells); format: cell-based, herpes simplex virus 2 (HSV-2); details: for HSV-2 inhibition category: semi-quantitative replication inhibition assay
Protocol: as §1, §2

human RNaseH1 = molecular target: T1, human RNaseH1 (Homo sapiens, UniProt O60930); test: Human RNaseH1 oligonucleotide-directed RNA cleavage assay; format: biochemical; details: recombinant human RNaseH1
T1 construct: made in house; host or cells: E. coli
T1 sequence (O60930 1-286): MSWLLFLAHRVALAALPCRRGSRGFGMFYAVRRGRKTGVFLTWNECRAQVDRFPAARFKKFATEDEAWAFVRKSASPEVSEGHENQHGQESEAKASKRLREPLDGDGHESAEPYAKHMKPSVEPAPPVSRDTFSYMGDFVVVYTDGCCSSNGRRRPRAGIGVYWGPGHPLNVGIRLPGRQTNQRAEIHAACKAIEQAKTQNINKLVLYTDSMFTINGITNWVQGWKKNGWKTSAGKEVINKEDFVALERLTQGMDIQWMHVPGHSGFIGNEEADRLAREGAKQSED
Protocol: Recombinant HBV RNaseH and human RNaseH1 were expressed in E. coli and partially purified by nickel-affinity chromatography as previously described in Tavis, et al. (2013). The enriched extracts were dialyzed into 50 mM HEPES pH 7.3, 300 mM NaCl, 20% glycerol, and 5 mM DTT and stored in liquid nitrogen.
RNaseH activity was measured using an oligonucleotide-directed RNA cleavage assay as previously described in Hu, et al., Tavis, et al., and Cai, et al. (2013; 2013; and 2014, respectfully). Briefly, 6 μL protein extract was mixed on ice with an internally ^32P-labeled 264 nt RNA derived from the Duck Hepatitis B Virus genome (DRF+ RNA) plus 3 μg oligonucleotide D2507- or its inverse-complement oligonucleotide D2526+ as a negative control. This mixture was incubated with test compounds in 50 mM Tris pH 8.0, 190 mM NaCl, 5 mM MgCl2, 3.5 mM DTT, 0.05% NP40, 6% glycerol, and 1% DMSO at 42° C. for 90 minutes. Cleavage products were resolved by denaturing polyacrylamide gel electrophoresis, detected by autoradiography, and quantified using ImageJ. Non-specific background values were determined from the incorrect oligonucleotide negative control lane and subtracted from all experimental values. IC50 values were then calculated with GraphPad Prism using three-parameter log(inhibitor) vs. response non-linear curve fitting with the curve minimum set to zero to reflect background subtraction.

[1] = tested on: TK-deficient mutant of HSV-2 strain 333, ΔTK-; test: Replication of TK-deficient HSV-2 mutant in Vero cells; format: cell-based, herpes simplex virus 2 (HSV-2); details: 5 μM, 24 h (FIG. 3)
Protocol: Vero cells were maintained in Dulbecco's modified Eagle's medium (DMEM) containing 3% newborn calf serum, 3% bovine growth serum, 2 mM L-glutamine and 100 IU/mL penicillin and 0.1 mg/mL streptomycin (P/S). HSV-1 #6 and HSV-2 #1 are de-identified clinical isolates from the Saint Louis University Hospital. Stocks were prepared after a single passage in cell culture and were titered by standard plaque assay (Knipe and Spang, 1982). Wild-type HSV-2 used in FIG. 3 was laboratory strain 333. The TK-deficient mutant of HSV-2 strain 333, ΔTK-, contains a 180-bp KpnI-KpnI deletion in the UL23 open reading frame that abrogates TK activity (McDermott, et al, 1984). ΔTK—was the generous gift of Jim Smiley. Virus stocks were grown and titered on Vero cells (Morrison and Knipe, 1996).
ACV is a nucleoside analog prodrug that must be phosphorylated by the viral thymidine kinase (TK) for it to become a substrate for the viral DNA polymerase (Elion, et al., 1977). HSV TK-deficient mutants are therefore insensitive to ACV. […] Vero cells were infected with a laboratory strain of HSV-2 and an engineered TK-deficient mutant of the same strain. […] ACV 5 μM inhibited wild-type HSV-2 replication 100-fold, but it had little effect on the TK-mutant (FIG. 3).

[2] = Mouse liver microsome assay; format: in vitro ADME; details: for CLint scaled at 1 μM: mouse, liver microsomes
Protocol: Microsomal incubations are run at a final P450 concentration of 0.25 μM. […] The mixture is prewarmed for 5 min at 37° C. To initiate the reaction a 12 mM stock of NAPDH (1.2 mM, final concentration) is added to the warmed microsomal mixture and aliquots are removed at 0, 5, 10, 20 and 30 min. […] Samples are vortexed and spun down at 3200 rpm for 5 min. The supernant is transferred to 96-deep well plates and run on LC/MS/MS.

[3] = 1 μM, Vero cells, moi 0.1, 24 h, relative to DMSO control
[4] = 5 μM, Vero cells, moi 0.1, 24 h, relative to DMSO control
[5] = 50 μM, Vero cells, moi 0.1, 24 h, relative to DMSO control

SMILES: Cc1cc(CC(C)CC(C)(C)C)n(O)c(=O)c1 (centres unmarked) [#191, Piroctone olamine]
- HSV-1 inhibition category (HSV-1; 1 μM): intermediate (1 to 3 log10 suppression, which equals 10- to 1,000-fold reduction)
- HSV-1 Log10 suppression 1 μM (HSV-1; [3]): 2.71 log10
- HSV-1 replication inhibition, fold (HSV-1; 5 μM): 4,074 fold
- HSV-1 inhibition category (HSV-1; 5 μM): strong (3 to 6 log10 suppression, or 1,000- to 1,000,000-fold reduction)
- HSV-1 Log10 suppression 5 μM (HSV-1; [4]): 3.61 log10 and 3.53 log10
- HSV-1 inhibition category (HSV-1; 50 μM): strong (3 to 6 log10 suppression, or 1,000- to 1,000,000-fold reduction)
- HSV-1 Log10 suppression 50 μM (HSV-1; [5]): 3.85 log10
- HSV-2 inhibition category (HSV-2; 1 μM): intermediate (1 to 3 log10 suppression, which equals 10- to 1,000-fold reduction)
- HSV-2 Log10 suppression 1 μM (HSV-2; [3]): 1.70 log10
- HSV-2 replication inhibition, fold (HSV-2; 5 μM): 39,000 fold
- HSV-2 inhibition category (HSV-2; 5 μM): strong (3 to 6 log10 suppression, or 1,000- to 1,000,000-fold reduction)
- suppression of replication of three primary clinical isolates of HSV-2 (HSV-2; 5 μM, Vero cells, moi 0.1, 24 h (FIG. 2)): > 4.7 log10
- HSV-2 Log10 suppression 5 μM (HSV-2; [4]): 4.59 log10 and 4.53 log10
- inhibition of wild-type HSV-2 (HSV-2; 5 μM, laboratory strain 333, Vero cells, 24 h (FIG. 3)): efficiently inhibited
- HSV-2 inhibition category (HSV-2; 50 μM): strong (3 to 6 log10 suppression, or 1,000- to 1,000,000-fold reduction)
- HSV-2 Log10 suppression 50 μM (HSV-2; [5]): 4.25 log10
- Anti-human RNase H1 (human RNaseH1): did not inhibit
- inhibition of TK-mutant HSV-2 [1]: efficiently inhibited
- ER ([2]; extraction ratio, mouse liver microsomes): 0.09
- Non-P450 turn-over ([2]; mouse liver microsomes): No
- half-life at 1 μM ([2]; mouse liver microsomes, 1 μM compound, read-out: t ½): > 120 min
- CLint scaled at 1 μM ([2]; 1 μM compound, read-out: CL ‘hep): 8 mL/min/kg
- CLint scaled at 1 μM ([2]; 1 μM compound, read-out: CL’int): 9 mL/min/kg
